“Also recorded” adds a separate entry of the source.
What was measured:
[1] = Hepatocyte stability; assay type: in vitro ADME; conditions: hepatocytes in culture; printed 'Stable > couple hrs' over two lines
Experimental: (§1) Time to inhibition refers to the time needed to inhibit the generation of NADH by 15-PGDH from the moment with drug is added into the reaction mix. Delta Tm refers to the shift in melting temperature of recombinant 15-PGDH in the presence of drug (with cofactor NADH also present). Concentration of Full Cell Line Reporter Induction refers to the concentration of drug that needs to be added to reporter cell line to achieve maximal induction of the 15-PGDH-luciferase gene fusion reporter cassette, as measured by luciferase assays. Hepatocyte stability refers to the half-life of compound in the presence of hepatocytes in culture. Toxicity refers to the concentration of compound needed to decrease cell numbers in a cell culture assay.

[2] = tested on: cell culture; experiment: Toxicity in a cell culture assay (decrease of cell numbers); assay type: cell-based; conditions: concentration needed to decrease cell numbers in a cell culture assay
Experimental: as §1

[3] = tested on: FVB mice; experiment: Toxicity study in FVB mice, daily weights; assay type: in vivo, mouse; conditions: 5 mg/kg IP twice daily for 21 days, N=6
[4] = tested on: C57BL/6J mice; experiment: Bone marrow of C57BL/6J mice treated in vivo; parameters: species or system mouse; conditions: IP 5 mg/kg or 20 mg/kg
Description: Experimental conditions are noted on the figure.

[5] = tested on: C57BL/6J female mice; experiment: Survival after whole body irradiation; assay type: in vivo, mouse; conditions: for Number of mice surviving: cohort of 3
[6] = tested on: C57BL/6J mice; experiment: Liver regeneration after partial hepatectomy, C57BL/6J mice; assay type: in vivo, mouse
[7] = tested on: FVB mice; experiment: Liver regeneration after partial hepatectomy, FVB mice; assay type: in vivo, mouse
[8] = tested on: C57BL/6J female mice; experiment: Survival following acetaminophen (Tylenol) overdose; assay type: in vivo, mouse;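 further: control animals received vehicle only, given on a once or twice daily schedule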
[9] = tested on: mice irradiated with 11Gy; experiment: Survival of mice following bone marrow transplant (Example 11); assay type: in vivo, mouse
Description: A matched control cohort received injections with vehicle only. On day one mice received an infusion of donor marrow at doses of 100,000 cells; 200,000 cells; or 500,000 cells. […] Among mice receiving 200,000 donor cells, all control mice were dead by day 12.

[10] = tested on: lethally irradiated mice; experiment: Blood and bone marrow recovery after transplant with 500,000 donor marrow cells; assay type: in vivo, mouse
[11] = tested on: lethally irradiated mice; experiment: Homing of CFSE dye labeled bone marrow cells in lethally irradiated mice; assay type: in vivo, mouse; conditions: 10 mg/kg IP
Experimental: Drugs are administered following radiation, following the transplant, and again at 8 hours after the transplant.

[12] = tested on: NSG mice; experiment: Homing of human umbilical cord blood buffy coat cells in NSG mice; assay type: in vivo, mouse
Experimental: FIG. 93 illustrates a schema of an experiment in which immune deficient NSG mice are lethally irradiated (IR) and 12 hours later receive a transplant with CFSE dye labeled buffy coat cells from human umbilical cord blood (UCB), and number of transplanted cells that home and survive in the bone marrow of the recipient mice are then determined by FACS at 16 hours post-transplant. In different arms of the experiment mice are treated with vehicle or with SW033291. Drugs are administered following radiation, following the transplant, and again at 8 hours after the transplant.

SMILES: CCCC[S+]([O-])c1sc2nc(-c3cccs3)cc(-c3ccccc3)c2c1N (stereo not shown) [SW033291, 2-(butylsulfinyl)-4-phenyl-6-(thiophen-2-yl)thieno[2,3-b]pyridin-3-amine]
- Hepatocyte stability [1]: couple hrs
- Toxicity [2]: >10 µM
- mouse weight gain [3]: no evidence for SW033291 reducing mouse weight
- percent of Sca1+/c-Kit+ cells in lineage negative (SKL) cells [4]: unchanged
- Number of mice surviving ([5]; 7 Gy, 5 mg/kg IP daily for 7 doses, Day 5): 3
- Number of mice surviving ([5]; 7 Gy, 5 mg/kg IP daily for 7 doses, Day 6): 3
- Number of mice surviving ([5]; 7 Gy, 5 mg/kg IP daily for 7 doses, Day 7): 3
- Number of mice surviving ([5]; 7 Gy, 5 mg/kg IP daily for 7 doses, Day 8): 3
- Number of mice surviving ([5]; 7 Gy, 5 mg/kg IP daily for 7 doses, Day 9): 3
- Number of mice surviving ([5]; 7 Gy, 5 mg/kg IP daily for 7 doses, Day 10): 3
- Number of mice surviving ([5]; 7 Gy, 5 mg/kg IP daily for 7 doses, Day 11): 3
- Number of mice surviving ([5]; 7 Gy, 5 mg/kg IP daily for 7 doses, Day 12): 3
- Number of mice surviving ([5]; 7 Gy, 5 mg/kg IP daily for 7 doses, Day 13): 3
- Number of mice surviving ([5]; 7 Gy, 5 mg/kg IP daily for 7 doses, Day 14): 3
- Number of mice surviving ([5]; 7 Gy, 5 mg/kg IP daily for 7 doses, Day 15): 3
- Appearance of mice ([5]; 7 Gy, Day 25, printed 'Looks Healthy' over two lines): Healthy
- Number of mice surviving ([5]; 9 Gy, 5 mg/kg IP daily for 7 doses, Day 5): 3
- Number of mice surviving ([5]; 9 Gy, 5 mg/kg IP daily for 7 doses, Day 6): 3
- Number of mice surviving ([5]; 9 Gy, 5 mg/kg IP daily for 7 doses, Day 7): 3
- Number of mice surviving ([5]; 9 Gy, 5 mg/kg IP daily for 7 doses, Day 8): 3
- Number of mice surviving ([5]; 9 Gy, 5 mg/kg IP daily for 7 doses, Day 9): 3
- Number of mice surviving ([5]; 9 Gy, 5 mg/kg IP daily for 7 doses, Day 10): 3
- Number of mice surviving ([5]; 9 Gy, 5 mg/kg IP daily for 7 doses, Day 11): 3
- Number of mice surviving ([5]; 9 Gy, 5 mg/kg IP daily for 7 doses, Day 12): 2
- Number of mice surviving ([5]; 9 Gy, 5 mg/kg IP daily for 7 doses, Day 13): 2
- Number of mice surviving ([5]; 9 Gy, 5 mg/kg IP daily for 7 doses, Day 14): 1
- Number of mice surviving ([5]; 9 Gy, 5 mg/kg IP daily for 7 doses, Day 15): 0
- longer survival than vehicle control ([5]; 11Gy, 5 mg/kg IP daily for 7 doses): 48 h
- Number of mice surviving ([5]; 11 Gy, 5 mg/kg IP daily for 7 doses (Table 6), Day 5): 3
- Number of mice surviving ([5]; 11 Gy, 5 mg/kg IP daily for 7 doses (Table 6), Day 6): 3
- Number of mice surviving ([5]; 11 Gy, 5 mg/kg IP daily for 7 doses (Table 6), Day 7): 3
- Number of mice surviving ([5]; 11 Gy, 5 mg/kg IP daily for 7 doses (Table 6), Day 8): 3
- Number of mice surviving ([5]; 11 Gy, 5 mg/kg IP daily for 7 doses (Table 6), Day 9): 2
- Number of mice surviving ([5]; 11 Gy, 5 mg/kg IP daily for 7 doses (Table 6), Day 10): 0
- Number of mice surviving ([5]; 11 Gy, 1 dose/daily for 7 days (Table 7), Day 5): 3
- Number of mice surviving ([5]; 11 Gy, 1 dose/daily for 7 days (Table 7), Day 6): 3
- Number of mice surviving ([5]; 11 Gy, 1 dose/daily for 7 days (Table 7), Day 7): 3
- Number of mice surviving ([5]; 11 Gy, 1 dose/daily for 7 days (Table 7), Day 8): 2
- Number of mice surviving ([5]; 11 Gy, 1 dose/daily for 7 days (Table 7), Day 9): 1
- Number of mice surviving ([5]; 11 Gy, 1 dose/daily for 7 days (Table 7), Day 10): 0
- Number of mice surviving ([5]; 11 Gy, 1 dose/daily, continuous every day, Day 5): 3
- Number of mice surviving ([5]; 11 Gy, 1 dose/daily, continuous every day, Day 6): 3
- Number of mice surviving ([5]; 11 Gy, 1 dose/daily, continuous every day, Day 7): 3
- Number of mice surviving ([5]; 11 Gy, 1 dose/daily, continuous every day, Day 8): 3
- Number of mice surviving ([5]; 11 Gy, 1 dose/daily, continuous every day, Day 9): 2
- Number of mice surviving ([5]; 11 Gy, 1 dose/daily, continuous every day, Day 10): 0
- Number of mice surviving ([5]; 11 Gy, 7 days, 2 dose daily, Day 5): 3
- Number of mice surviving ([5]; 11 Gy, 7 days, 2 dose daily, Day 6): 3
- Number of mice surviving ([5]; 11 Gy, 7 days, 2 dose daily, Day 7): 3
- Number of mice surviving ([5]; 11 Gy, 7 days, 2 dose daily, Day 8): 3
- Number of mice surviving ([5]; 11 Gy, 7 days, 2 dose daily, Day 9): 2
- Number of mice surviving ([5]; 11 Gy, 7 days, 2 dose daily, Day 10): 0
- longer survival than vehicle control, on average ([5]; 11Gy, any of three 5 mg/kg dosing schedules): 1 to 2 days
- mitosis per high powered field in liver ([6]; 5 mg/kg IP daily, post-operative days 3 and 4): significantly increased hepatic mitosis; also recorded: significantly increased numbers of mitotic liver cells
- serum ALT levels ([6]; one mouse each, 5 mg/kg IP bid, post-operative days 1-7): lower
- BrdU positive (S-phase) cells in liver ([7]; post-operative day 2): clear increase in numbers of BrdU positive cells
- increase in median S-phase cells ([7]; post-operative day 2, P<0.05): greater than 2 fold
- greater liver weight than control mice ([7]; post-operative day 7): approximately 25%
- Number of mice surviving ([8]; 5 mg/kg 1 dose/daily, first dose immediately after Tylenol, 16 hr, cohort of 6): 6
- Number of mice surviving ([8]; 5 mg/kg 1 dose/daily, first dose immediately after Tylenol, 24 hrs, cohort of 6): 6
- Number of mice surviving ([8]; 5 mg/kg 2 dose/daily, first dose immediately after Tylenol, 16 hr, cohort of 6): 6
- Number of mice surviving ([8]; 5 mg/kg 2 dose/daily, first dose immediately after Tylenol, 24 hrs, cohort of 6): 6
- Number of mice surviving ([8]; 5 mg/kg 2 dose/daily, first dose immediately after Tylenol, 48 hrs, cohort of 6): 3
- Number of mice surviving ([8]; 5 mg/kg 2 dose/daily, first dose immediately after Tylenol, 64 hrs, cohort of 6): 3
- Number of mice surviving ([8]; 5 mg/kg 2 dose/daily, first dose immediately after Tylenol, 72 hrs, cohort of 6): 3
- Number of mice surviving ([8]; 5 mg/kg 2 dose/daily, first dose immediately after Tylenol, 88 hr, cohort of 6): 3
- Number of mice surviving ([8]; 5 mg/kg 2 dose/daily, first dose immediately after Tylenol, 96 hr, cohort of 6): 3
- Number of mice surviving ([8]; 5 mg/kg 2 dose/daily, first dose immediately after Tylenol, 112 hr, cohort of 6): 3
- Number of mice surviving ([8]; 5 mg/kg 2 dose/daily, first dose immediately after Tylenol, 120 hr, cohort of 6): 3
- survival versus control mice ([8]; 5 mg/kg IP begun immediately following acetaminophen, once or twice daily, through 120 hours): No difference
- protection from acetaminophen lethality ([8]; 5 mg/kg IP bid beginning 48 hours prior to acetaminophen, 9 doses): protects from the lethal hepatotoxicity of acetaminophen
- Number of mice surviving ([8]; 5 mg/kg bid from 3 hours prior to acetaminophen, 6 doses, 16 hr, cohort of 6): 6
- Number of mice surviving ([8]; 5 mg/kg bid from 3 hours prior to acetaminophen, 6 doses, 24 hrs, cohort of 6): 5
- Number of mice surviving ([8]; 5 mg/kg bid from 3 hours prior to acetaminophen, 6 doses, 48 hrs, cohort of 6): 3
- Number of mice surviving ([8]; 5 mg/kg bid from 3 hours prior to acetaminophen, 6 doses, 64 hrs, cohort of 6): 3
- Number of mice surviving ([8]; 5 mg/kg bid from 3 hours prior to acetaminophen, 6 doses, 72 hrs, cohort of 6): 3
- Number of mice surviving ([8]; 5 mg/kg bid from 3 hours prior to acetaminophen, 6 doses, 88 hr, cohort of 6): 3
- Number of mice surviving ([8]; 5 mg/kg bid from 3 hours prior to acetaminophen, 6 doses, 96 hr, cohort of 6): 3
- Number of mice surviving ([8]; 5 mg/kg bid from 3 hours prior to acetaminophen, 6 doses, 112 hr, cohort of 6): 3
- Number of mice surviving ([8]; 5 mg/kg bid from 3 hours prior to acetaminophen, 6 doses, 120 hr, cohort of 6): 3
- Number of mice surviving ([8]; 5 mg/kg bid from 48 hours prior to acetaminophen, 9 doses, 16 hr, cohort of 12): 12
- Number of mice surviving ([8]; 5 mg/kg bid from 48 hours prior to acetaminophen, 9 doses, 24 hrs, cohort of 12): 12
- Number of mice surviving ([8]; 5 mg/kg bid from 48 hours prior to acetaminophen, 9 doses, 40 hrs, cohort of 12): 11
- Number of mice surviving ([8]; 5 mg/kg bid from 48 hours prior to acetaminophen, 9 doses, 48 hrs, cohort of 12): 10
- Number of mice surviving ([8]; 5 mg/kg bid from 48 hours prior to acetaminophen, 9 doses, 64 hrs, cohort of 12): 10
- Number of mice surviving ([8]; 5 mg/kg bid from 48 hours prior to acetaminophen, 9 doses, 72 hrs, cohort of 12): 10
- Number of mice surviving ([8]; 5 mg/kg bid from 48 hours prior to acetaminophen, 9 doses, 88 hr, cohort of 12): 10
- Number of mice surviving ([8]; 5 mg/kg bid from 48 hours prior to acetaminophen, 9 doses, 96 hr, cohort of 12): 10
- Number of mice surviving ([8]; 5 mg/kg bid from 48 hours prior to acetaminophen, 9 doses, 112 hr, cohort of 12): 10
- Number of mice surviving ([8]; 5 mg/kg bid from 48 hours prior to acetaminophen, 9 doses, 120 hr, cohort of 12): 10
- median survival ([9]; 100,000 donor cells, 5 mg/kg twice daily): approximate doubling of median survival
- survival ([9]; 200,000 donor cells, 30 days of observation): survived at 30 days of observation
- survival ([9]; 500,000 donor cells, day 30): all survived
- total platelet count ([10]; day 5 after transplant): significantly higher total platelet count
- total white count ([10]; day 5 after transplant): significantly higher total white count
- platelet count ([10]; day 8 after transplant): 77,000 platelets
- neutrophil count ([10]; day 12 after transplant): 332 neutrophils
- total white counts ([10]; day 12 after transplant): significantly higher total white counts; also recorded: significantly greater total white counts
- lymphocyte count ([10]; day 18 after transplant): significantly higher
- neutrophil count ([10]; day 18 after transplant): 835 neutrophils
- platelet counts ([10]; day 18 after transplant): significantly higher platelet counts
- total white count ([10]; day 18 after transplant): significantly higher total white count
- increase in numbers of homed cells in recipient bone marrow ([11]; FIG. 88): 3 fold
- increase in numbers of homed cells in recipient bone marrow ([11]; FIG. 90): 2 fold
- increase in numbers of homed donor cells in recipient bone marrow ([11]; FIG. 140): approximately 2.5 fold
- increase in numbers of homed human cells in recipient bone marrow [12]: ~2 fold

Source: patent US9789116B2, “Compositions and methods of modulating short-chain dehydrogenase activity” (CASE WESTERN RESERVE UNIVERSITY, priority 2013, dated 2017)
